In patent publication US20220183287A1, “METHODS FOR KILLING PESTS” (The United States of America, as represented by the …, priority 2020, published 2022):
Read-outs that look alike come from different tables or passages of the source. Marks after values point to notes of the source that are not given here.

Key:
Heterodera glycines eggs = assay: Microwell assay: eggs immersed in compounds, hatch and activity of hatched J2; format: in vivo; details: for % Active Day 2 / % Active Day 5 / % Active Day 7: J2 hatched from immersed eggs; for inactive J2 that hatched from the eggs: by Day 7; for Hatch Day 2 / Hatch Day 5 / Hatch Day 7: hatched J2 per well, about 35 eggs per well; for pest or weed control at 0.1 %: Heterodera glycines, 168 h, read-out: egg hatch suppression compared with the Tween control
Experimental: (§1) All chemicals were used without further purification.
(§2) These are reported as 0.1% herein.
(§3) The nematodes were then incubated at 26° C. […] Two trials were conducted for each assay.
(§4) The assumptions of the model were checked.

[1] = tested on: M. incognita second-stage juveniles; assay: Microwell assay: previously hatched J2 immersed in compounds, activity and viability; details: for mortality at 0.1 %: read-out: nonviable (killed) J2
M. incognita = assay: Greenhouse trial: root galls on cucumber in treated soil; format: in vivo, Meloidogyne incognita; details: for reduction of galls per gram of root compared with the Tween control: 0.1%, Trials 1 & 2
Description: Two weeks after transplant, the plants were harvested.
as §4
The number of carbons is indicated in parentheses.

[2] = tested on: H. glycines second-stage juveniles; assay: Microwell assay: previously hatched J2 immersed in compounds, activity and viability; details: for viability reduction compared with the Tween control: following the water rinse (Day 3); for inactive J2: Day 1 and Day 2; for reduction in % viable J2 compared with the Tween control: Day 3 following water rinse
M. incognita eggs = assay: Microwell assay: eggs immersed in compounds, hatch and activity of hatched J2; format: in vivo, Meloidogyne incognita; details: 0.1%; for % Active Day 2 / % Active Day 5 / % Active Day 7: J2 hatched from immersed eggs; for Hatch Day 2 / Hatch Day 5 / Hatch Day 7: hatched J2 per well, about 35 eggs per well
Experimental: as §1, §2, §3, §4

[3] = 0.1%, previously hatched J2 in aqueous solution
[4] = Meloidogyne incognita, 72 h, read-out: % Viable Day 3 rinsed
[5] = Heterodera glycines, 72 h, read-out: % Viable Day 3 rinsed

SMILES | % Active Day 2 (Heterodera glycines eggs; 0.1%) | % Active Day 5 (Heterodera glycines eggs; 0.1%) | % Active Day 7 (Heterodera glycines eggs; 0.1%) | inactive J2 that hatched from the eggs (Heterodera glycines eggs; 0.1%) | Hatch Day 2 (Heterodera glycines eggs; 0.1%) | Hatch Day 5 (Heterodera glycines eggs; 0.1%) | Hatch Day 7 (Heterodera glycines eggs; 0.1%) | % Active Day 1 [1, 3] | % Active Day 2 [1, 3] | viability at 0.1 % [1, 4] [%] | mortality at 0.1 % ([1]; Meloidogyne incognita, 72 h) [%] | Galls per gram root Trials 1 & 2 (M. incognita; 0.05%, 5,000 eggs per pot) | Galls per gram root Trials 1 & 2 (M. incognita; 0.1%, 5,000 eggs per pot) | % Active Day 1 [2, 3] | % Active Day 2 [2, 3] | viability at 0.1 % [2, 5] [%] | % Active Day 2 (M. incognita eggs) | % Active Day 5 (M. incognita eggs) | % Active Day 7 (M. incognita eggs) | Hatch Day 2 (M. incognita eggs) | other results
CCOC(=O)c1ccccc1 [EB, Ethyl benzoate] | 0 ^e % | 0 ^f % | 0 ^d % | all J2 that hatched from the eggs were inactive | 6.7 ^bcd | 6.8 ^bcd | 6.6 ^bcd | 0 ^f % | 0 ^d % | 0 | 100 | 22.6 ^bcd | 34.2 ^abc | 2.7 ^e % | 1.8 ^g % | 4.4 | 0 ^c % | 0 ^e % | 0 ^c % | 2.4 ^cd | % Active Day 2 ([1]; 0.025% final concentration): 42.9 ^bc %; viability at 0.025 % [1, 4]: 80.2%; reduction of galls per gram of root compared with the Tween control (M. incognita): 53%; % Active Day 1 ([2]; 0.025% final concentration): 73.9 ^a %; viability at 0.025 % [2, 5]: 52.8%; Hatch Day 5 (M. incognita eggs): 3.9 ^cde; Hatch Day 7 (M. incognita eggs): 4.3 ^de
COC(=O)c1cccc(C)c1 [M3MB, Methyl 3-methylbenzoate] | 0 ^e % | 0 ^f % | 0 ^d % | all J2 that hatched from the eggs were inactive | 5.2 ^cd | 5.4 ^cd | 5.1 ^cd | 0 ^f % | 0 ^d % | 0 | 100 | 11.2 ^bcdef | 6.8 ^defg | 10.1 ^d % | 7.6 ^g % | 8.5 | 0 ^c % | 0 ^e % | 0 ^c % | 1.9 ^cd | pest or weed control at 0.1 % (Heterodera glycines eggs; 0.1%, Day 7): 64 to 80%; % Active Day 2 ([1]; 0.015% final concentration): 66.8 ^ab %; viability at 0.015 % [1, 4]: 63.7%; % Active Day 1 ([2]; 0.015% final concentration): 71.9 ^a %; viability at 0.015 % [2, 5]: 58.7%; Hatch Day 5 (M. incognita eggs): 2.7 ^cde; Hatch Day 7 (M. incognita eggs): 2.9 ^de
COC(=O)c1ccccc1 [MB, Methyl benzoate] | 0 ^e % | 0 ^f % | 0 ^d % | all J2 that hatched from the eggs were inactive | 5.4 ^cd | 5.6 ^cd | 5.5 ^cd | 0 ^f % | 0 ^d % | 0 | 100 | 16.6 ^bcde | 7.4 ^defg | 0 ^e % | 0 ^h % | 0 | 0 ^c % | 0 ^e % | 0 ^c % | 2.2 ^cd | pest or weed control at 0.1 % (Heterodera glycines eggs): 64 to 80%; % Active Day 2 ([1]; 0.0095% final concentration): 22.4 ^d %; viability at 0.0095 % [1, 4]: 75.6%; % Active Day 1 ([2]; 0.0095% final concentration): 49.7 ^bc %; % Active Day 2 ([2]; 0.0095% final concentration): 27.9 ^bc %; viability reduction compared with the Tween control ([2]; 0.0095%): 32%; inactive J2 ([2]; 0.1%): 100%; reduction in % viable J2 compared with the Tween control ([2]; 0.1%): 100%; viability at 0.0095 % [2, 5]: 43.8%; Hatch Day 5 (M. incognita eggs): 3.8 ^cde; Hatch Day 7 (M. incognita eggs): 4.7 ^de
C=COC(=O)c1ccccc1 [VB, Vinyl benzoate] | 0 ^e % | 0 ^f % | 1 ^d % | all J2 that hatched from the eggs were inactive | 3.5 ^d | 3.5 ^d | 3.4 ^d | 0 ^f % | 0 ^d % | 1 | 100 | 1.8 ^gh | 0.1 ^h | 0 ^e % | 0 ^h % | 0 | 0 ^c % | 0 ^e % | 0 ^c % | 2.7 ^cd | hatch suppression compared to the Tween control (Heterodera glycines eggs; 0.1%, Day 2): 76%; pest or weed control at 0.1 % (Heterodera glycines eggs; 0.1%, Day 7): 80%; % Active Day 2 ([1]; 0.008% final concentration, Trial 2 only): 22.4 ^cd %; viability at 0.0008 % [1, 4]: 89.6%; viability at 0.008 % [1, 4]: 43.1%; % Viable Day 3 rinsed ([1]; in vivo): did not result in a significant reduction; reduction of galls per gram of root compared with the Tween control (M. incognita): ~100%; % Active Day 1 ([2]; 0.008% final concentration): 42.8 ^bc %; % Active Day 2 ([2]; 0.008% final concentration): 34.7 ^b %; viability reduction compared with the Tween control ([2]; 0.008%): 30%; inactive J2 ([2]; 0.1%): 100%; reduction in % viable J2 compared with the Tween control ([2]; 0.1%): 100%; viability at 0.008 % [2, 5]: 45%; Hatch Day 5 (M. incognita eggs): 2.9 ^cde; Hatch Day 7 (M. incognita eggs): 2.8 ^de
